The IC50 is the concentration that gives 50% inhibition.

For the assay, the target named is PAI-1 (Homo sapiens, UniProt P05121). Put plainly: PAI-1 assay (direct chromogenic assay, inhibitory activity of PAI-1 against uPA). Format: biochemical. To be noted: substrate N-CBZ-VAL-GLY-ARG p-nitroanilide, 10 minute incubation at 37° C., read-out: PAI-1 inhibitory activity in vitro, IC50. On the procedure:
The inhibitory activity of PAI-1 against uPA was measured by a direct chromogenic assay using the substrate N-CBZ-VAL-GLY-ARG p-nitroanilide. The tested compound was added to PAI-1 which had been diluted in activity assay buffer (0.05M Hepes, pH 7.5, 0.15M NaCl, containing 0.05% N-octyl-D-glucopyranoside and 250 μg/ml bovine serum albumin). After a 10 minute incubation at 37° C., uPA was added (0.04 units/assay), followed immediately by the addition of substrate. After reequilibration at 37° C., residual uPA activity was quantified by measuring the change in absorbance at 405 nm over 12 minutes. The concentration of active PAI-1 in the assays was the amount required to inhibit 80-85% of uPA as compared to samples containing uPA alone.
Compounds No. 1 to 37 were tested in the PAI-1 assay as described above.

The structures appear in SMILES notation.

PAI-1, sequence (P05121 24-402): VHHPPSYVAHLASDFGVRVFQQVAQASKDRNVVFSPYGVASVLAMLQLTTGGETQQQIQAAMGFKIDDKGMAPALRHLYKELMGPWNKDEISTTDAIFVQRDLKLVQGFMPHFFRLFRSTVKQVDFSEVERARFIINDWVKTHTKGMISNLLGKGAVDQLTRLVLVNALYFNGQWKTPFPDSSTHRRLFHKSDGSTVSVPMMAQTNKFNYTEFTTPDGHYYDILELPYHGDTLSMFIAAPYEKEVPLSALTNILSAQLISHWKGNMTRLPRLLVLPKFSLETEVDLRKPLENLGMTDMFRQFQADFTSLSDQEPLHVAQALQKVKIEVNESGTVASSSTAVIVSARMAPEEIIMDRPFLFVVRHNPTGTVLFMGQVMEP

In the case of `CCc1cc2c(cc1-c1csc(Nc3ccc(C(=O)O)cc3)n1)C(C)(C)CCC2(C)C` [Compound 2, 4-{[4-(3-ethyl-5,5,8,8-tetramethyl-2-5,6,7,8-tetrahydronaphthyl)-1,3-thiazol-2-yl]amino}benzoic acid], the IC50 is 1800 nM. The same measure for `CCc1cc2c(cc1-c1csc(Nc3cccc(C(=O)O)c3)n1)C(C)(C)CCC2(C)C` [Compound 3]: 1100 nM; for `N#Cc1ccc(Nc2nc(-c3ccc(-c4ccccc4)cc3)cs2)cc1` [Compound 11, 4-{[4-(4-phenylphenyl)-1,3-thiazol-2-yl]amino}benzenecarbonitrile]: 1600 nM.

The values above are taken from patent US6586453B2, “Substituted thiazoles and the use thereof as inhibitors of plasminogen activator inhibitor-1” (3-Dimensional Pharmaceuticals, Inc., priority 2000, dated 2003).
